# Laboratory results taken from US11414437B2, “Borate compound, and synthesis method therefor and uses thereof” (CHENGDU ORIGIN BIOTECHNOLOGY LIMITED COMPANY, priority 2017, dated 2022).
# Like-named read-outs stand apart in the source and are kept apart here.
# Experiments:
# [1] = molecular target: hERG potassium channel (Homo sapiens, UniProt Q12809); assay: Inhibition test of hERG potassium channel of heart (patch clamp); format: cell-based; settings: for hERG current inhibition ratio % / IC50: n 3; for inhibitory effect on the hERG potassium channel (judged by general standard): judged by the standard of b169; for IC50: patch clamp
# Text: An inhibitory effect of the tested compound on hERG was judged by a general standard (Roche O. et al. ChemBioChem. 2002, 3:455-459.):
# When a hERG semi-inhibitory concentration of a medicine exceeded about 30 times of a peak concentration thereof in blood, the concentration was in a relatively safe range (Redfernelt al, Cardiovascular Research, 58, 32-45 (2003)).
# [2] = High-temperature and high-humidity accelerated stability test; format: physicochemical; settings: compared with compounds 8l, MLN9708, MLN2238 of the prior art
# Text: In addition, the compound of the present invention has better stability.
# [3] = tested on: MM.1S (human multiple myeloma cell); assay: In vitro activity test (CCK-8 cell growth inhibition); format: cell-based; settings: MM1.S, 48 hours incubation, read-out: MM.IS cell GI50 (μM) value
# Description: (§1) Cells RPMI-8226 (human multiple myeloma cell) and MM.1S (human multiple myeloma cell) were cultured in a RPMI 1640 medium containing 10% fetal bovine serum at 37[…] under 5% CO2 to a logarithmic growth phase. The cells were respectively inoculated into a 96-well culture plate in a quantity of 3×10^4/well. After culturing for 24 hours at 37[…] under 5% CO2, a solvent control DMSO (dimethyl sulfoxide) or a tested compound (the tested compound taken 0.3 μM as an initial concentration, was diluted 3 times each time, and was diluted 5 times in total to obtain 6 concentration gradients) dissolved in the DMSO was added into the cells. The tested compound was incubated with the cells for 48 hours at 37[…] under 5% CO2. A CCK-8 reagent was added into each well, and incubated at 37 °C for 2 hours according to a reagent specification, and an optical density value of each well was read at a wavelength of 450 nm using a spectrophotometer.
# (§2) An optical density value of the cells when the medicine acted for 0 hour was set as a Tz value, which represented a value of the cells when the medicine was added. The optical density value of the cells when the solvent control DMSO acted for 48 hours was set as a C value; and the optical density value of the cells when the tested compound acted for 48 hours was set as a Ti value. According to a method proposed by the NIH-NCI (National Institutes of Health-National Cancer Institute) of the United States, a response of the cells to a medicine was calculated: when Ti≥Tz, the response was [(Ti−Tz)/(C−Tz)]×100; and when Ti<Tz, the response was [(Ti−Tz)/Tz]×100. According to the calculation above, a GI50 value (a concentration of the tested compound required when a cell growth inhibition rate was 50%) was calculated by the 4 Parameter Logistic Model in the XLfit software.
# [4] = tested on: RPMI-8226 (human multiple myeloma cell); assay: as above; format: cell-based; settings: 48 hours incubation
# Description: as §1, §2
# [5] = tested on: MM.1S human multiple myeloma SCID mouse transplanted tumor; assay: Pharmacodynamic test, SCID mouse transplanted tumor model; format: in vivo; settings: 0.0166 mmol/kg intragastric
# Description: In the experiment, a SCID mouse transplanted tumor model of a human multiple myeloma cell line MM.1S was used. Specific modeling steps were as follows: frozen MM.1S cells were resuscitated and cultured in vitro according to a routine, and the cells were collected in a logarithmic growth phase, and diluted with PBS to form a tumor cell suspension with a concentration of 5×10^7/ml. […] About 1 week to 2 weeks after injection, the mass was palpable in axillary, and in vivo passage was performed when a tumor volume was larger than 500 mm^3. After the mouse was killed by a neck pulling method, a body surface was disinfected, skin was cut open, aseptic operation was performed, a tumor tissue was peeled off from an axillary subcutaneous tissue, a fibrous capsule was removed, and the tumor was taken out. The tumor was washed clean in normal saline, and then cut, and after removing the central necrotic part, the tumor tissue with good growth, reddish color and fish flesh shape was selected, then was cut into 1 mm×1 mm×1 mm small pieces, and placed in normal saline for later use. The cut tumor was placed in a mouth of a No. 18 trocar, iodized cotton was used to disinfect the side of the armpit close to the back of the mouse, and local inoculation was performed. The transplanted tumor used in the test was the 4th generation of in vivo passage. When the tumor volume of most SCID mice of in vivo passage was larger than 100 mm^3, the tumor volume was measured and calculated, and the mice were randomly grouped according to the tumor volume.
# The administration mode was intragastric administration through mouth, with an administration volume of 10 ml/kg. The model control group was given the same volume of solvent intragastrically. The mice were all intragastrically administrated through mouth twice a week for a total of 5 times, i.e., the mice were administrated at the 1st, 5th, 8th, 12th and 15th days of the experiment, with a duration of 18 days.
# Doses of different tested samples were equimolar, with a specific dose of 0.0166 mmol/kg; and the model control group was only given normal saline. The medicines were 8b and 8l, as well as Ixazomib Citrate (MLN9708) and Ixazomib (MLN2238).
# On the 5th, 8th, 12th, 15th and 18th days after administration, a short diameter (a) and a long diameter (b) of the tumor of each mouse were measured with a vernier caliper, and the tumor volume was calculated according to a formula (a^2×b)/2. A relative tumor volume (RTV) was calculated based on the tumor volume measured and calculated, RTV=Vt/V0. V0 was the tumor volume at random grouping (i.e., d0) and Vt was the tumor volume at each measurement (i.e., dn). A relative tumor proliferation rate of an anti-tumor activity evaluation index was calculated according to the following formula: relative tumor proliferation rate T/C (%): […]
# (Note: TRTV was a RTV of the treatment group; and CRTV was a RTV of the model control group. An evaluation standard of a curative effect was T/C %≤40%, and the medicine was effective when P<0.05 after statistical treatment).
# After weighing and measuring the tumor on the 18th day, all animals were sacrificed, and the tumor was taken and weighed.
# [6] = tested on: SD rats
# Text: The test was a single-dose toxicity test of SD rats by intragastric administration through mouth.
# [7] = dose 2, 0.001662 mmol/kg single intragastric dose, 6 female rats, 14 days observation
# [8] = dose 2, 0.001662 mmol/kg single intragastric dose, 6 male rats, 14 days observation
# [9] = dose 4, 0.00277 mmol/kg single intragastric dose, 6 female rats, 14 days observation
# [10] = dose 4, 0.00277 mmol/kg single intragastric dose, 6 male rats, 14 days observation
# hERG potassium channel, sequence (Q12809 whole entry): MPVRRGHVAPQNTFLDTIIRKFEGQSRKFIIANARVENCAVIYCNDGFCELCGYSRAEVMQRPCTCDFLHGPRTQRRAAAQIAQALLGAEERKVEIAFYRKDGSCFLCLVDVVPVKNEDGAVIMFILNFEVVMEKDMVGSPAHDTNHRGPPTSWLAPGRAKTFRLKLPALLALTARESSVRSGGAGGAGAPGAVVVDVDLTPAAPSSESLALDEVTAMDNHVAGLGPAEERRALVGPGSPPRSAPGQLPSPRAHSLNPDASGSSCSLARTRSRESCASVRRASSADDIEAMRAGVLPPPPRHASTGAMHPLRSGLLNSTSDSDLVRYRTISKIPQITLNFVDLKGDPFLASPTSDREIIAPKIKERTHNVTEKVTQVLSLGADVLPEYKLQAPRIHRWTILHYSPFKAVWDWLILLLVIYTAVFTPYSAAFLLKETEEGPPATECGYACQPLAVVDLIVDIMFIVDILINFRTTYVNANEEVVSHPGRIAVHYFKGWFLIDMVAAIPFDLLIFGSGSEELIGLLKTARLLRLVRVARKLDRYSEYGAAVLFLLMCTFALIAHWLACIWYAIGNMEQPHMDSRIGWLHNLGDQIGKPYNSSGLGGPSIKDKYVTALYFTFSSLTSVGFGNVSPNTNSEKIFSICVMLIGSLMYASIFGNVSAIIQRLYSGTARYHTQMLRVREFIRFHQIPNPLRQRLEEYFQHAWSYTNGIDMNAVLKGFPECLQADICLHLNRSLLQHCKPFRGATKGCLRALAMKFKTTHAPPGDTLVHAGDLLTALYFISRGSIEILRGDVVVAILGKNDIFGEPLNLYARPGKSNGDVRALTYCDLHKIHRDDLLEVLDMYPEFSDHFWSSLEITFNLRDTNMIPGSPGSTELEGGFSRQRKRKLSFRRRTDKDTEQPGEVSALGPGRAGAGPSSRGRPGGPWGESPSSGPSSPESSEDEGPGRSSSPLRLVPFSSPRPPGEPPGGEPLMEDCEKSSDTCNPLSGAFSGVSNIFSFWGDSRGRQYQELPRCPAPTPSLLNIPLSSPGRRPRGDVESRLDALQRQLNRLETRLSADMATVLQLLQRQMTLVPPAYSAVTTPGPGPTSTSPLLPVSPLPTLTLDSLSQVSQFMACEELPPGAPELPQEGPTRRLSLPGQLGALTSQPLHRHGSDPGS
smiles,measurement,setting,value
CC(C)C[C@H](NC(=O)CNC(=O)c1cc(Br)ccc1Cl)B1OC(=O)c2ccccc2O1 [compound 8a],hERG current inhibition ratio %,[1]; 0.3 μM,1.47% ±
same,hERG current inhibition ratio %,[1]; 1 μM,5.53% ±
same,hERG current inhibition ratio %,[1]; 3 μM,4.36% ±
same,hERG current inhibition ratio %,[1]; 10 μM,11.24% ±
same,hERG current inhibition ratio %,[1]; 30 μM,7.86% ±
same,inhibitory effect on the hERG potassium channel (judged by general standard),[1],no inhibitory effect
same,IC50,[1],> 30000 nM
same,stability under high-temperature and high-humidity accelerated test condition,[2],better stabilities
CC(C)C[C@H](NC(=O)CNC(=O)c1cc(Cl)ccc1Br)B1OCCNCCO1 [drawing 42],GI50,[3],0.00816 µM
same,GI50,[4],0.006 µM
"CC(C)C[C@H](NC(=O)CNC(=O)c1cc(Br)ccc1Cl)B1OC(=O)[C@@H](c2ccccc2)O1 [compound 8b, 2-chloro-5-bromo-N-[2-({(1R)-3-methyl-1-[(5R)-4-oxo-5-phenyl-1,3,2-dioxaborolan-2-yl]butyl}amino)-2-oxoethyl]benzamide]",inhibitory effect on the hERG potassium channel (judged by general standard),[1],no inhibitory effect
same,IC50,[1],> 30000 nM
same,inhibition of tumor growth (in words),"[5]; stronger than 8l, MLN9708, MLN2238 (p<0.01)",significantly inhibited tumor growth
same,Tumor weight,"[5]; after the 18th day, X ± SD",0.028 ± 0.025 g
same,stability under high-temperature and high-humidity accelerated test condition,[2],better stabilities
same,Female Suvival,"[6]; dose 1, 0.001108 mmol/kg single intragastric dose, 6 female rats, 14 days observation",6
same,Male Suvival,"[6]; dose 1, 0.001108 mmol/kg single intragastric dose, 6 male rats, 14 days observation",6
same,Female Death,[6]; [7],0
same,Female Suvival,[6]; [7],6
same,Male Death,[6]; [8],0
same,Male Suvival,[6]; [8],6
same,Female Suvival,"[6]; dose 3, 0.002216 mmol/kg single intragastric dose, 6 female rats, 14 days observation",6
same,Male Suvival,"[6]; dose 3, 0.002216 mmol/kg single intragastric dose, 6 male rats, 14 days observation",6
same,Female Death,[6]; [9],2
same,Female Suvival,[6]; [9],4
same,Male Death,[6]; [10],0
same,Male Suvival,[6]; [10],6
same,maximum tolerance dose,"[6]; female rats, single intragastric dose",0.002216 mmol/kg
same,Female Death,"[6]; female, rat, in vivo, 0.001108 mmol/kg, 14 days",0
same,Female Death,"[6]; female, rat, in vivo, 0.002216 mmol/kg, 14 days",0
same,Male Death,"[6]; male, rat, in vivo, 0.001108 mmol/kg, 14 days",0
same,Male Death,"[6]; male, rat, in vivo, 0.002216 mmol/kg, 14 days",0
CC(C)C[C@H](NC(=O)CNC(=O)c1cc(Cl)ccc1Cl)B1OC(=O)[C@@H](c2ccccc2)O1 [drawing 43],GI50,[3],0.0186 µM
same,GI50,[4],0.0216 µM
CC(C)C[C@H](NC(=O)CNC(=O)c1cc(Br)ccc1Cl)B1OC(=O)c2ccccc2O1 [drawing 39],GI50,[3],0.00209 µM
same,GI50,[4],0.00619 µM
CC(C)C[C@H](NC(=O)CNC(=O)c1cc(Br)ccc1Cl)B1OC(=O)[C@@H](c2ccccc2)O1 [drawing 40],GI50,[3],0.00275 µM
same,GI50,[4],0.00598 µM
